Reference: ChEMBL document CHEMBL1201862, “PubChem BioAssay data set” (2004)
Calls of active or inactive are those of the source.

Legend:
[1] = A549 cell cytotoxicity, dose response, cytotoxicity control, CellTiter-Glo luminescence, dry powder, set 5 (AID 743158); type: functional, cell-based
[2] = HepG2 cell cytotoxicity, dose response, cytotoxicity control, ATP luminescence, dry powder, set 2 (AID 743129); type: functional, cell-based
[3] = target: Mitogen-activated protein kinase 10 (Homo sapiens, UniProt P53779); assay: Dose response biochemical screening assay for inhibitors of c-Jun N-Terminal Kinase 3 (JNK3). [Related pubchem assays: 746 ]
Chain of Mitogen-activated protein kinase 10 (P53779 whole entry): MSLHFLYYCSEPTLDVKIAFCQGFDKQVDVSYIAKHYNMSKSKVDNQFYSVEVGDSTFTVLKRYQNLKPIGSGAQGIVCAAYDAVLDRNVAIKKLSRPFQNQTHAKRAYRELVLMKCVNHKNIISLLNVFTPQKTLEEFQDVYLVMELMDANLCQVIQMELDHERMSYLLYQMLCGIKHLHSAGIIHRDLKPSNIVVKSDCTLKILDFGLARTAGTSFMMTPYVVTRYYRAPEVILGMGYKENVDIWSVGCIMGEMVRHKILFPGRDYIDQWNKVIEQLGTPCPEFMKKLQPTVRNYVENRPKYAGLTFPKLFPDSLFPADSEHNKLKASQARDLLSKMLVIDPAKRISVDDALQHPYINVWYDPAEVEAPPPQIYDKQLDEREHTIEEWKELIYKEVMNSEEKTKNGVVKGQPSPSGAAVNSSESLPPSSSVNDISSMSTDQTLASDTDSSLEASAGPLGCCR

Phospholipase D2 = Phospholipase D2 (Homo sapiens, UniProt O14939); assay: PLD2 Cellular Concentration Response Study.; type: functional
Chain of Phospholipase D2 (O14939 whole entry): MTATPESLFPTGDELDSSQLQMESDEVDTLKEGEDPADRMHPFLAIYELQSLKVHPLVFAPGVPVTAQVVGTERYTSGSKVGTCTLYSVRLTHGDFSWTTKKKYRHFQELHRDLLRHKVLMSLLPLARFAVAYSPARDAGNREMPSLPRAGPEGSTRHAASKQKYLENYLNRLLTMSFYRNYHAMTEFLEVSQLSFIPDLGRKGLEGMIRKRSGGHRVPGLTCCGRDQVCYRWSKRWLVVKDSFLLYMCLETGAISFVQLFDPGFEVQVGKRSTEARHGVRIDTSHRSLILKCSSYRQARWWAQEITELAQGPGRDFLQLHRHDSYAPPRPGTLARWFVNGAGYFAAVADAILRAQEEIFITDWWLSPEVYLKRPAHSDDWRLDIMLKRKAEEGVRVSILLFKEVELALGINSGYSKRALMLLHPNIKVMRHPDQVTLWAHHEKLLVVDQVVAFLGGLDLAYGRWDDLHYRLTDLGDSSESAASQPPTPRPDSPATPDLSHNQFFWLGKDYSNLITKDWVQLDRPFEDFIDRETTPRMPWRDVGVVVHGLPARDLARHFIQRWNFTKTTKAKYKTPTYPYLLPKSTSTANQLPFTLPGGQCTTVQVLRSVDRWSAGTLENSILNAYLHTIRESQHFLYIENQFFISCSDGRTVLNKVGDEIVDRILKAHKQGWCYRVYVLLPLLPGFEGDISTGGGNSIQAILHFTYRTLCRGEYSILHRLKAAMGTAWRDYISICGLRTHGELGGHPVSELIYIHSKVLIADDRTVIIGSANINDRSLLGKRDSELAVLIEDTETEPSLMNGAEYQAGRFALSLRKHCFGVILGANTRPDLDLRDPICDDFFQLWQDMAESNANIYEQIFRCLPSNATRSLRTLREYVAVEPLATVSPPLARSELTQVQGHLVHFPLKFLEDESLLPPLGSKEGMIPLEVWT

Phospholipase D1 = Phospholipase D1 (Homo sapiens, UniProt Q13393); assay: PLD1 Cellular Concentration Response Study.; type: functional
Chain of Phospholipase D1 (Q13393 whole entry): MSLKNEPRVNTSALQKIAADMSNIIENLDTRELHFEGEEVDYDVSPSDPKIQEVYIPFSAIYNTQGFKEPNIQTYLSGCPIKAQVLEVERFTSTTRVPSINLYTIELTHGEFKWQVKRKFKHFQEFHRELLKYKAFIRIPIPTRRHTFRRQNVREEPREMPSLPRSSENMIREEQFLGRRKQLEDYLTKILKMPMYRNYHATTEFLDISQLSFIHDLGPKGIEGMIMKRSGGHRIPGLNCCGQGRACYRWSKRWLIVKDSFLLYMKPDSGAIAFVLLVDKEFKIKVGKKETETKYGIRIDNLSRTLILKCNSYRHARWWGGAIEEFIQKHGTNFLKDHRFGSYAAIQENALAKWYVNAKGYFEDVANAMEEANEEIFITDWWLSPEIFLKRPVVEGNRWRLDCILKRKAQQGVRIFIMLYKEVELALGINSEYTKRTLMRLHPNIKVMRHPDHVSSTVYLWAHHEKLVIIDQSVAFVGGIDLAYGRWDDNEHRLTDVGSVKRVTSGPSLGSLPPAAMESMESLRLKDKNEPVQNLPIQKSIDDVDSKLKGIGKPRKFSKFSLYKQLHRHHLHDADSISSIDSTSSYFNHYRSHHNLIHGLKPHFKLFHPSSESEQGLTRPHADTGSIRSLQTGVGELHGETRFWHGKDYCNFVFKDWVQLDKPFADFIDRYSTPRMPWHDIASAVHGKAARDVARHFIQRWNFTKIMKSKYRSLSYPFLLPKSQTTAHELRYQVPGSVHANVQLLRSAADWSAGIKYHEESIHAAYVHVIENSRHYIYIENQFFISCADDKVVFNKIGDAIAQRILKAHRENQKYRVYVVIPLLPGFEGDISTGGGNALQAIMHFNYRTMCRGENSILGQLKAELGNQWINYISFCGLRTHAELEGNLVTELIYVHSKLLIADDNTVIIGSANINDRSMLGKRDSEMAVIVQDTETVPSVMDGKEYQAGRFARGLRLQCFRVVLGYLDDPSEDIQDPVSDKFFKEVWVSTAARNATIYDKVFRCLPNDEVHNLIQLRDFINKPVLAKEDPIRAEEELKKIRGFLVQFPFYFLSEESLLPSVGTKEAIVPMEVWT

[4] = Dose-response inhibition of insulin secretion in a rat insulinoma line at 5 mM glucose (AID 1117331); type: functional, cell-based; conditions: INS-1E
[5] = half-maximal inhibitory concentration for glucagon-like peptide-1 release, STC-1 cell line, dose-response (AID 1117345); type: functional, cell-based
[6] = Glucagon-like peptide 1 release potency, NCI-H716 cell line, dose-response, half-maximal inhibitory concentration (AID 1117344); type: functional, cell-based
[7] = HeLa 2N DNA content increase, dose response, cell-based, IC50 (AID 1117349); type: functional
[8] = HeLa 4N DNA content increase, dose response, cell-based, IC50 (AID 1117351); type: functional
[9] = P. falciparum Dd2 growth inhibitors, dose response, SYBR Green, dry powder samples, set 9 (AID 1159568); type: functional, cell-based
[10] = target: T1, Neuropeptides B/W receptor type 1 (Homo sapiens, UniProt P48145); assay: Fluorescence-based dose response cell-based high throughput screening assay to identify antagonists of the G-protein coupled receptor 7 (GPR7). [Related pubchem assays: 1952 (Screening assay (GPR7 antagonists).), 1880 (Summary AID.)]; type: functional
T1 sequence (P48145 whole entry): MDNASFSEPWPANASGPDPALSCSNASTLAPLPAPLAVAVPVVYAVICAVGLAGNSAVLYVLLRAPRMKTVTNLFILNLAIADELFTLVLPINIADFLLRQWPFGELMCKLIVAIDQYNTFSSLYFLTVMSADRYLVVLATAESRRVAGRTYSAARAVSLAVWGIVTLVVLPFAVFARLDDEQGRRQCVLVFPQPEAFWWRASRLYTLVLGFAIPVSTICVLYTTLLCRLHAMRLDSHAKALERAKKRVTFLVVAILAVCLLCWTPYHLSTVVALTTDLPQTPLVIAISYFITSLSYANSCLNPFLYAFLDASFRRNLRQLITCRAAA

[11] = target: Melanin-concentrating hormone receptor 1 (Homo sapiens, UniProt Q99705); assay: Fluorescence-based counterscreen for antagonists of the G-protein coupled receptor 7 (GPR7): cell-based high throughput dose response assay to identify antagonists of the melanin-concentrating hormone receptor 1 (MCHR1).; type: functional
Chain of Melanin-concentrating hormone receptor 1 (Q99705 whole entry): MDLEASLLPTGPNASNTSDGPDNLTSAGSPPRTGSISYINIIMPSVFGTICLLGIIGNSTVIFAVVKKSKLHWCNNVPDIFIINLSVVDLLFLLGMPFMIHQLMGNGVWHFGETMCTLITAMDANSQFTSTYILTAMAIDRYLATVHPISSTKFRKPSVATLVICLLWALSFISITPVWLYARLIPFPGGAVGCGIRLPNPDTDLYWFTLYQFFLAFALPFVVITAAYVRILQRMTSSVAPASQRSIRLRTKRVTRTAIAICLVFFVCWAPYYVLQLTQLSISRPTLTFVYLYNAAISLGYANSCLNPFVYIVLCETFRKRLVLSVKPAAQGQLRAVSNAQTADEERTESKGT

cells [12] = type: functional, cell-based
[13] = inhibitors of intracellular T. cruzi replication, confirmation, NIH3T3 host cells, beta-gal luminescence (AID 2044); type: functional, cell-based;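 further: intracellular parasites grown in NIH/3T3 mouse fibroblasts as host cells; luminescent beta-galactosidase reporter signal from transgenic T. cruzi replicating inside host cells; inhibitors lower the luminescence signal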
cells [14] = type: functional, cell-based; remark: listed apart in the source
[15] = cytotoxicity toward NIH3T3 fibroblasts, dose response, counter-screen, cell-based, ATP luminescence, mouse fibroblasts (AID 2010); type: functional;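 further: cells exposed to compound for about 90 hours before reading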
[16] = target: Heat shock protein HSP 90-alpha (Homo sapiens, UniProt P07900); type: functional, organism-based
INS1 = assay: beta cell apoptosis inhibitors, cytokine rescue, dose response, luminescence, retest (AID 449756); type: functional, cell-based; conditions: Rattus norvegicus, INS1;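 further: cell death triggered by IL-1 beta plus TNF-alpha plus IFN-gamma mixture; protective hits raise ATP signal compared with cytokine alone wells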
[17] = Shn3 3'UTR reporter inhibitors, dose response, cell-based, Clone20 osteoblasts, firefly luciferase, cherry-picked (AID 624132); type: functional;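 further: firefly luciferase luminescence from reporter carrying the Shn3 3'UTR in osteoblasts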
[18] = HepG2 cell cytotoxicity, dose response, cytotoxicity control for Shn3 inhibitor project, CellTiter-Glo, cherry-picked (AID 624134); type: functional, cell-based
[19] = control 3'UTR Renilla luciferase suppression, dose response, counter-screen for Shn3 inhibitor project, cell-based, Clone20-Shn3RL, cherry-picked (AID 624133); type: functional
Paired box protein Pax-8 = Paired box protein Pax-8 (Homo sapiens, UniProt Q06710); assay: inhibitors of PAX8-driven TPO luciferase reporter, dose response, RMG-I cells, cherry-pick (AID 687027); type: functional, cell-based;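 further: luciferase reporter driven by Pax8 target thyroperoxidase promoter measured by SteadyGlo luminescence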
[20] = PAX2 cell-based inhibition, dose response, selectivity assay for PAX8 inhibitor project, plate reader, dry powder samples (AID 743048); type: functional;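 further: HEK293 cells carrying a WT1 promoter luciferase reporter driven by expressed Pax2; potency is for inhibition of Pax2 driven reporter signal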
[21] = cytotoxicity in COV362 ovarian cancer cells, dose response, cytotoxicity control for PAX8 inhibitor project, cell-based, plate reader, dry powder, SA12 (AID 743144); type: functional
[22] = IOSE-T80 ovarian epithelial cell cytotoxicity, dose response, cytotoxicity control for PAX8 inhibitor project, plate reader, dry powder samples (AID 743045); type: functional, cell-based
[23] = A2780 ovarian cancer cell cytotoxicity, dose response, cytotoxicity control, plate reader, dry powder samples (AID 743046); type: functional, cell-based
[24] = NIH:OVCAR-3 ovarian cancer cell cytotoxicity, dose response, PAX8 inhibitor project, plate reader, dry powder samples (AID 743044); type: functional, cell-based
[25] = PAX5 activity inhibitors, dose response, selectivity assay for PAX8 inhibitor project, cell-based, plate reader, dry powder samples (AID 743047); type: functional;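 further: HEK293 cells carrying a Pax5 driven CD19 promoter luciferase reporter; potency of inhibitors that lower reporter luminescence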
[26] = IGROV1 ovarian cancer cell cytotoxicity, dose response, PAX8 inhibitor project, plate reader, dry powder samples (AID 743043); type: functional, cell-based; conditions: IGROV-1
[27] = HEK293T cytotoxicity, dose response, cytotoxicity control for miR-122 modulator project, cell-based, inhibitor set, cherry-pick, set 2 (AID 720697); type: functional
[28] = human group III sPLA2 inhibitors, dose response, biochemical, QFRET, IC50 (AID 743457);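 further: green fluorescence rise as the enzyme cleaves BODIPY PC-A2 in liposomes; potency for inhibition of the enzyme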
[29] = HEK293T cytotoxicity, dose response, cytotoxicity control for miR-122 modulator project, cell-based, activator set, cherry-pick (AID 720690); type: functional;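 further: HEK293T human cells scored for general mammalian cytotoxicity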
[30] = cytotoxicity in OVCAR4 cells, dose response, cytotoxicity control for PAX8 inhibitor project, cell-based, plate reader, dry powder, SA11 (AID 743150); type: functional; conditions: OVCAR-4
[31] = cytotoxicity in COV434 cells, dose response, cytotoxicity control for PAX8 inhibitor project, cell-based, plate reader, dry powder, SA7 (AID 743145); type: functional
[32] = cytotoxicity in OV-90 ovarian cancer cells, dose response, PAX8 inhibitor project, cell-based, plate reader, dry powder, SA8 (AID 743149); type: functional
[33] = cytotoxicity dependent on PAX8, dose response, cell-based, plate reader, dry powder (AID 743049); type: functional
[34] = target: Intestinal-type alkaline phosphatase (Mus musculus, UniProt P24822); assay: PubChem AID 488785; type: functional
Chain of Intestinal-type alkaline phosphatase (Mus musculus, UniProt P24822) (P24822 whole entry): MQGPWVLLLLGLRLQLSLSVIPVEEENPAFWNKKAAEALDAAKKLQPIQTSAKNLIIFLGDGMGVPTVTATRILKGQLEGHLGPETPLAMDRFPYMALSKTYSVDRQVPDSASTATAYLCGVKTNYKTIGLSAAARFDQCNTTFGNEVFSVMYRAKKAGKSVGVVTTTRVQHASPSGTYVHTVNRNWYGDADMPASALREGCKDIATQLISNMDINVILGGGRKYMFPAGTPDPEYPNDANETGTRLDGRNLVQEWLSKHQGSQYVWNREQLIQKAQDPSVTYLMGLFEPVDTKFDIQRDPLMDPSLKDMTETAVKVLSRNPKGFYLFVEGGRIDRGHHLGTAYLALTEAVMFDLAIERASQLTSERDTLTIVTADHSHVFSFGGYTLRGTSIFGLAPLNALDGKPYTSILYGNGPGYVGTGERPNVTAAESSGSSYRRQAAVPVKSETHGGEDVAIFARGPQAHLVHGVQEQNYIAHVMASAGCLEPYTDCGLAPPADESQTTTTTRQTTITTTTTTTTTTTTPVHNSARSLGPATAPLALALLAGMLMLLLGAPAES

[35] = target: T2, Alkaline phosphatase, tissue-nonspecific isozyme (Homo sapiens, UniProt P05186); assay: TNAP enzyme inhibition by screening hits, dose response, selectivity assay for mouse IAP inhibitor project, biochemical, human TNAP, uHTS hits (AID 488906); type: functional
T2 sequence (P05186 whole entry): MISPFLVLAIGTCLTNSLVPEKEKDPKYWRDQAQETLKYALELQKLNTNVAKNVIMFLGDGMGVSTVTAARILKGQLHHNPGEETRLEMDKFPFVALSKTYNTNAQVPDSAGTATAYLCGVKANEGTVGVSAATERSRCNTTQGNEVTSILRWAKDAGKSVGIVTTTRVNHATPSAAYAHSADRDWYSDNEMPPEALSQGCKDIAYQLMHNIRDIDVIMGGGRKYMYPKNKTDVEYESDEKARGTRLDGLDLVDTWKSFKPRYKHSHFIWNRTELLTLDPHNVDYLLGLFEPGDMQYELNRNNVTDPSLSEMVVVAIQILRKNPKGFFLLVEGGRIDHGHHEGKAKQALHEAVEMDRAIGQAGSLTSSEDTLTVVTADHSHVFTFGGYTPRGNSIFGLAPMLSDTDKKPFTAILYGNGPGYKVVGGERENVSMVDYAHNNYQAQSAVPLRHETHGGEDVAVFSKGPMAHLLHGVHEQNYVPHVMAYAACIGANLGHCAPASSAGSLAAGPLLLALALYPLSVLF

[36] = target: Intestinal-type alkaline phosphatase (Homo sapiens, UniProt P09923); assay: inhibition of human intestinal alkaline phosphatase – biochemical, dose response (AID 488876); type: functional
Chain of Intestinal-type alkaline phosphatase (Homo sapiens, UniProt P09923) (P09923 whole entry): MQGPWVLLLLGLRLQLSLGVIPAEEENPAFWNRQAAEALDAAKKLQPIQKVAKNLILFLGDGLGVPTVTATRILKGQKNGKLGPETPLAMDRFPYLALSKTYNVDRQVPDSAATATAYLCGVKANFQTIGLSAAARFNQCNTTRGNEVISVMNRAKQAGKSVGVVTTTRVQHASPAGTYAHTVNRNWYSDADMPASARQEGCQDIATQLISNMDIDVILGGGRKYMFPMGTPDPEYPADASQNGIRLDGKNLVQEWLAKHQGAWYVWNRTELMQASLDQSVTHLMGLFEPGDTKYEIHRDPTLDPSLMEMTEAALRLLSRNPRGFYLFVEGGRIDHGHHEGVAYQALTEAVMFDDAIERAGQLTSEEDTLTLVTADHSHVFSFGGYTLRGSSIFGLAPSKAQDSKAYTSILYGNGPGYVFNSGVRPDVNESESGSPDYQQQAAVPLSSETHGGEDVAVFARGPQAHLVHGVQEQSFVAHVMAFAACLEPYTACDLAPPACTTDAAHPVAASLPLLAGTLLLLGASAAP

[37] = target: RNA-editing ligase 1, mitochondrial (Trypanosoma brucei brucei, UniProt P86926); assay: TbREL1 ligase inhibitors, dose response, biochemical, fluorescence, Trypanosoma brucei (AID 1117295); type: functional
Chain of RNA-editing ligase 1, mitochondrial (P86926 whole entry): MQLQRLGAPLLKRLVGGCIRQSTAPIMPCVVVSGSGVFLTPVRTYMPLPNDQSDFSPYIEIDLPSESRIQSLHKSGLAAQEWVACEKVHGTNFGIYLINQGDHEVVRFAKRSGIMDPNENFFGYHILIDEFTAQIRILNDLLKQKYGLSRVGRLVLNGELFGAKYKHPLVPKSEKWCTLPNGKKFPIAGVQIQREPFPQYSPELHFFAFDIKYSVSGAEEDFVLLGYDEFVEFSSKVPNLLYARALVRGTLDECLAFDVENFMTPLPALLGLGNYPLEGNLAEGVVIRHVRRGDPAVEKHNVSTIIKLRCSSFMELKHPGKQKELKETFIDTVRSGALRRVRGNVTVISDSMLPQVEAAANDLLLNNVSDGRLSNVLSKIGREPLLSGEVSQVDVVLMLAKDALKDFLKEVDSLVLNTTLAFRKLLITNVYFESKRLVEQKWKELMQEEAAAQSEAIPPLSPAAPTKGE

[38] = P. falciparum 3D7-ScDHODH growth inhibitors, dose response, SYBR Green, dry powder samples (AID 1159570); type: functional, cell-based;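 further: parasite growth measured after 72 hours of compound exposure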
[39] = HepG2 cell cytotoxicity, dose response, cytotoxicity control, plate reader, dry powder samples (AID 1159569); type: functional, cell-based;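 further: inhibitor potency with signal falling toward the positive control level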
[40] = P. falciparum Dd2 growth inhibitors, dose response, SYBR Green, cherry-picked samples (AID 1159567); type: functional, cell-based
[41] = P. falciparum Dd2 growth inhibitors, dose response, SYBR Green, dry powder samples (AID 1159566); type: functional, cell-based;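 further: potency for growth inhibition with lower SYBR green DNA signal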
[42] = Plasmodium falciparum Dd2 Sybr green parasite growth Measured in Cell-Based and Microorganism Combination System Using Plate Reader - 2153-01_Inhibitor_Dose_DryPowder_Activity_Set3.; type: functional
[43] = P. falciparum ATP4 D1247Y mutant growth inhibitors, dose response, NITD609-resistant line, SYBR Green, dry powder (AID 1159571); type: functional, cell-based;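 further: parasites synchronized at ring stage by sorbitol before testing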
[44] = target: Sphingosine 1-phosphate receptor 2 (Homo sapiens, UniProt O95136); assay: Dose Response Cell Based Assay for Agonists of the S1P2 Receptor. [Related pubchem assays: 729, 736, 843 ]; type: functional
Chain of Sphingosine 1-phosphate receptor 2 (O95136 whole entry): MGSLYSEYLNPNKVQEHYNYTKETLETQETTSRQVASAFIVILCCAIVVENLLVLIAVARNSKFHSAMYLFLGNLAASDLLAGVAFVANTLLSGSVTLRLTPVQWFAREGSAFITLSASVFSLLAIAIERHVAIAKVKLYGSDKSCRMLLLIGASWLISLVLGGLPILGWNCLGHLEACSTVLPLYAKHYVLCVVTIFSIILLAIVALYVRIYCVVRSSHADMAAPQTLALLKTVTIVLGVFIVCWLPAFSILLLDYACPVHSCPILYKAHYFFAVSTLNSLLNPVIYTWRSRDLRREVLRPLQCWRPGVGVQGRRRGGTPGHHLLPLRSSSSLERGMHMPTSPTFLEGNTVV

[45] = target: T3, Low molecular weight phosphotyrosine protein phosphatase (Homo sapiens, UniProt P24666); assay: LMPTP phosphatase inhibitors, dose response, biochemical, OMFP substrate, fluorescence intensity, set 2 (AID 743307); type: functional
T3 sequence (P24666 whole entry): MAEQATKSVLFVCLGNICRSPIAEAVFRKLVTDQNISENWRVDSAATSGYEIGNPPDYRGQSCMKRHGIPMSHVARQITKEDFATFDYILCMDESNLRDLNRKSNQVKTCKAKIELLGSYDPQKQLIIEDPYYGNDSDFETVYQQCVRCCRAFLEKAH

[46] = target: T3, Low molecular weight phosphotyrosine protein phosphatase; assay: LMPTP phosphatase inhibitors, colorimetric pNPP readout, dose response, orthogonal assay, biochemical, absorbance, pNPP substrate, LMPTP-A isoform, set 2 (AID 743308); type: functional

CCOC(=O)c1c(-c2ccc(C(C)(C)C)cc2)csc1NC(=O)CN1CCN(C)CC1
AC50 [1]: 21.4 µM (active) | AC50 [2]: 16.4 µM (active)

COC(=O)c1ccc(Cn2c(O)c(N=O)c3ccccc32)o1
IC50 [3]: > 31 µM (not active)

O=C(NCCN1CCC2(CC1)C(=O)NCN2Cc1ccccc1)c1ccc2ccccc2c1
IC50 (Phospholipase D2): 0.89 µM (active) | IC50 (Phospholipase D1): 8.26 µM (active)

CC(COc1ccccc1)NN (stereo not given) [PHENOXYPROPAZINE]
IC50 [4]: > 33.3 µM (inactive) | IC50 [5]: 27.2 µM (inactive) | IC50 [6]: > 40 µM (inactive)

CC[C@]1(O)C[C@H]2CN(CCc3c([nH]c4ccccc34)[C@@](C(=O)OC)(c3cc4c(cc3OC)N(C=O)[C@H]3[C@@](O)(C(=O)OC)[C@H](OC(C)=O)[C@]5(CC)C=CCN6CC[C@]43[C@@H]65)C2)C1 [VINCRISTINE]
IC50 [7]: 0.0062 µM (active) | IC50 [8]: 0.0059 µM (active)

C[C@H]1CCCCO[C@H](CN(C)S(=O)(=O)c2ccccc2)[C@@H](C)CN([C@@H](C)CO)C(=O)c2cc(NC(=O)Nc3ccc4c(c3)OCO4)ccc2O1
AC50 [9]: 2.22 µM (active)

O=C(O)c1ccc(NCc2cccc(Br)c2)cc1
IC50 [10]: > 43.8 µM (not active) | IC50 [11]: > 43.8 µM (not active)

CCCCC(=O)NC(c1ccccc1OC)c1ccc2cccnc2c1O (stereo not given)
EC50 (cells [12]): 6.29 µM (active) | EC50 [13]: 0.435 µM (active) | EC50 (cells [14]): > 350 µM (not active) | EC50 [15]: 1.27 µM (active) | AC50 [16]: 4.38 µM (active) | AC50 (INS1): 0.718 µM (active) | AC50 [17]: 1.19 µM (active) | AC50 [18]: 2.55 µM (active) | AC50 [19]: 3.18 µM (active) | AC50 (Paired box protein Pax-8): 2.44 µM (active) | AC50 [20]: 3.22 µM (active) | AC50 [21]: 7.92 µM (active) | AC50 [22]: 5.77 µM (active) | AC50 [23]: 8.16 µM (active) | AC50 [24]: 4.87 µM (active) | AC50 [25]: 3.51 µM (active) | AC50 [26]: 7.55 µM (active) | AC50 [27]: 2.22 µM (active) | IC50 [28]: > 122 µM (inactive) | AC50 [29]: 3.36 µM (active) | AC50 [30]: 16.3 µM (active) | AC50 [31]: 6.89 µM (active) | AC50 [32]: 10.7 µM (active) | AC50 [33]: 20.1 µM (active)

N#Cc1c(SCC(=O)Nc2nccs2)sc2c(O)cc(O)nc12
IC50 [34]: 0.485 µM (active) | IC50 [35]: > 100 µM (inactive) | IC50 [36]: > 100 µM (inactive) | IC50 [37]: 35.5 µM (inactive)

COc1ccccc1-c1ccc([C@@H]2[C@@H](C#N)N[C@@H]2CO)cc1
AC50 [38]: 3.22 µM (active) | AC50 [39]: > 100 µM (inactive) | AC50 [40]: 3.02 µM (active) | AC50 [41]: 0.907 µM (active) | AC50 [42]: 6.32 µM (active) | AC50 [43]: 0.946 µM (active)

C(=C\c1ccccc1)/CSc1nnc(-c2ccccc2)n1Cc1ccco1
EC50 [44]: > 50 µM (not active)

Fc1ccc2nc(-c3ccccc3)cc(NCCCN3CCCCC3)c2c1
IC50 [45]: 22 µM (inactive) | IC50 [46]: 21 µM (inactive)
